Assay results as given in ChEMBL document CHEMBL5614409, “Discovery of potent HIV-1 NNRTIs by CuAAC click-chemistry-based miniaturized synthesis, rapid screening and structure optimization” (Eur J Med Chem, 2024).

Test system: Human immunodeficiency virus 1
Assay: Antiviral activity against HIV1 IIIB infected in MT4 cells assessed as reduction in virus induced cytopathic effect incubated for 5 days by MTT method
Format: functional, organism-based
Conditions: Human immunodeficiency virus 1, IIIB, MT4, 120 h

SMILES	EC50 [nM]
Cc1cc(/C=C/C#N)cc(C)c1Oc1nc(NC2CCN(Cc3cn(CC(=O)NC4CCOCC4)nn3)CC2)nc2ccccc12	8
CNC(=O)Cn1cc(CN2CCC(Nc3nccc(Oc4c(C)cc(/C=C/C#N)cc4C)n3)CC2)nn1	1
Cc1cc(/C=C/C#N)cc(C)c1Oc1ccnc(NC2CCN(Cc3cn(CC(N)=O)nn3)CC2)n1	2
Cc1cc(/C=C/C#N)cc(C)c1Oc1nc(NC2CCN(Cc3cn(CC(N)=O)nn3)CC2)nc2ccsc12	5
Cc1cc(/C=C/C#N)cc(C)c1Oc1ccnc(NC2CCN(Cc3cn(CC(=O)NC4CCOCC4)nn3)CC2)n1	4
CCNC(=O)Cn1cc(CN2CCC(Nc3nc4c(c(Oc5c(C)cc(/C=C/C#N)cc5C)n3)COC4)CC2)nn1	4
Cc1cc(/C=C/C#N)cc(C)c1Oc1nc(NC2CCN(Cc3cn(CC(=O)NC4CC4)nn3)CC2)nc2c1COC2	5

Test system: not listed separately
Assay: Cytotoxicity against human MT4 cells assessed as reduction in cell viability incubated for 5 days by MTT method
Format: toxicity, cell-based
Conditions: time 5 day

SMILES	CC50 at 120 h [nM]
Cc1cc(/C=C/C#N)cc(C)c1Oc1nc(NC2CCN(Cc3cn(CC(=O)NC4CCOCC4)nn3)CC2)nc2ccccc12	18400
CNC(=O)Cn1cc(CN2CCC(Nc3nccc(Oc4c(C)cc(/C=C/C#N)cc4C)n3)CC2)nn1	23500
O=C1Nc2ccc(Cl)cc2[C@@](C#CC2CC2)(C(F)(F)F)O1 [EFAVIRENZ]	> 6350
Cc1cc(/C=C/C#N)cc(C)c1Oc1ccnc(NC2CCN(Cc3cn(CC(N)=O)nn3)CC2)n1	47400
Cc1cc(/C=C/C#N)cc(C)c1Oc1nc(NC2CCN(Cc3cn(CC(N)=O)nn3)CC2)nc2ccsc12	16200
Cc1cc(/C=C/C#N)cc(C)c1Oc1ccnc(NC2CCN(Cc3cn(CC(=O)NC4CCOCC4)nn3)CC2)n1	19200
CCNC(=O)Cn1cc(CN2CCC(Nc3nc4c(c(Oc5c(C)cc(/C=C/C#N)cc5C)n3)COC4)CC2)nn1	120000
Cc1cc(/C=C/C#N)cc(C)c1Oc1nc(NC2CCN(Cc3cn(CC(=O)NC4CC4)nn3)CC2)nc2c1COC2	118000

Test system: not listed separately
Assay: Selectivity index, ratio of CC50 for human MT4 cells to EC50 for antiviral activity against HIV1 IIIB infected in MT4 cells
Format: toxicity, cell-based
Conditions: read-out: Ratio CC50/EC50

SMILES	selectivity ratio
Cc1cc(/C=C/C#N)cc(C)c1Oc1nc(NC2CCN(Cc3cn(CC(=O)NC4CCOCC4)nn3)CC2)nc2ccccc12	2300
CNC(=O)Cn1cc(CN2CCC(Nc3nccc(Oc4c(C)cc(/C=C/C#N)cc4C)n3)CC2)nn1	19600
Cc1cc(/C=C/C#N)cc(C)c1Oc1ccnc(NC2CCN(Cc3cn(CC(N)=O)nn3)CC2)n1	21600
Cc1cc(/C=C/C#N)cc(C)c1Oc1nc(NC2CCN(Cc3cn(CC(N)=O)nn3)CC2)nc2ccsc12	3000
Cc1cc(/C=C/C#N)cc(C)c1Oc1ccnc(NC2CCN(Cc3cn(CC(=O)NC4CCOCC4)nn3)CC2)n1	4560
CCNC(=O)Cn1cc(CN2CCC(Nc3nc4c(c(Oc5c(C)cc(/C=C/C#N)cc5C)n3)COC4)CC2)nn1	33200
Cc1cc(/C=C/C#N)cc(C)c1Oc1nc(NC2CCN(Cc3cn(CC(=O)NC4CC4)nn3)CC2)nc2c1COC2	22800

Test system: Human immunodeficiency virus 1
Assay: Antiviral activity against HIV1 IIIB harboring L100I mutant infected in MT4 cells assessed as reduction in virus induced cytopathic effect incubated for 5 days by MTT method
Format: functional, organism-based
Conditions: Human immunodeficiency virus 1, IIIB, MT4, 120 h

SMILES	EC50 [nM]
Cc1cc(/C=C/C#N)cc(C)c1Oc1nc(NC2CCN(Cc3cn(CC(=O)NC4CCOCC4)nn3)CC2)nc2ccccc12	15
CNC(=O)Cn1cc(CN2CCC(Nc3nccc(Oc4c(C)cc(/C=C/C#N)cc4C)n3)CC2)nn1	10
Cc1cc(/C=C/C#N)cc(C)c1Oc1ccnc(NC2CCN(Cc3cn(CC(N)=O)nn3)CC2)n1	30
Cc1cc(/C=C/C#N)cc(C)c1Oc1nc(NC2CCN(Cc3cn(CC(N)=O)nn3)CC2)nc2ccsc12	18
Cc1cc(/C=C/C#N)cc(C)c1Oc1ccnc(NC2CCN(Cc3cn(CC(=O)NC4CCOCC4)nn3)CC2)n1	19
CCNC(=O)Cn1cc(CN2CCC(Nc3nc4c(c(Oc5c(C)cc(/C=C/C#N)cc5C)n3)COC4)CC2)nn1	13
Cc1cc(/C=C/C#N)cc(C)c1Oc1nc(NC2CCN(Cc3cn(CC(=O)NC4CC4)nn3)CC2)nc2c1COC2	16

Test system: Human immunodeficiency virus 1
Assay: Antiviral activity against HIV1 IIIB harboring K103 N mutant infected in MT4 cells assessed as reduction in virus induced cytopathic effect incubated for 5 days by MTT method
Format: functional, organism-based
Conditions: Human immunodeficiency virus 1, IIIB, MT4, 120 h

SMILES	EC50 [nM]
Cc1cc(/C=C/C#N)cc(C)c1Oc1nc(NC2CCN(Cc3cn(CC(=O)NC4CCOCC4)nn3)CC2)nc2ccccc12	14
CNC(=O)Cn1cc(CN2CCC(Nc3nccc(Oc4c(C)cc(/C=C/C#N)cc4C)n3)CC2)nn1	2
Cc1cc(/C=C/C#N)cc(C)c1Oc1ccnc(NC2CCN(Cc3cn(CC(N)=O)nn3)CC2)n1	3
Cc1cc(/C=C/C#N)cc(C)c1Oc1nc(NC2CCN(Cc3cn(CC(N)=O)nn3)CC2)nc2ccsc12	8
Cc1cc(/C=C/C#N)cc(C)c1Oc1ccnc(NC2CCN(Cc3cn(CC(=O)NC4CCOCC4)nn3)CC2)n1	5
CCNC(=O)Cn1cc(CN2CCC(Nc3nc4c(c(Oc5c(C)cc(/C=C/C#N)cc5C)n3)COC4)CC2)nn1	6
Cc1cc(/C=C/C#N)cc(C)c1Oc1nc(NC2CCN(Cc3cn(CC(=O)NC4CC4)nn3)CC2)nc2c1COC2	8

Test system: Human immunodeficiency virus 1
Assay: Antiviral activity against HIV1 IIIB harboring Y181C mutant infected in MT4 cells assessed as reduction in virus induced cytopathic effect incubated for 5 days by MTT method
Format: functional, organism-based
Conditions: Human immunodeficiency virus 1, IIIB, MT4, 120 h

SMILES	EC50 [nM]
Cc1cc(/C=C/C#N)cc(C)c1Oc1nc(NC2CCN(Cc3cn(CC(=O)NC4CCOCC4)nn3)CC2)nc2ccccc12	31
CNC(=O)Cn1cc(CN2CCC(Nc3nccc(Oc4c(C)cc(/C=C/C#N)cc4C)n3)CC2)nn1	11
Cc1cc(/C=C/C#N)cc(C)c1Oc1ccnc(NC2CCN(Cc3cn(CC(N)=O)nn3)CC2)n1	21
Cc1cc(/C=C/C#N)cc(C)c1Oc1nc(NC2CCN(Cc3cn(CC(N)=O)nn3)CC2)nc2ccsc12	32
Cc1cc(/C=C/C#N)cc(C)c1Oc1ccnc(NC2CCN(Cc3cn(CC(=O)NC4CCOCC4)nn3)CC2)n1	22
CCNC(=O)Cn1cc(CN2CCC(Nc3nc4c(c(Oc5c(C)cc(/C=C/C#N)cc5C)n3)COC4)CC2)nn1	20
Cc1cc(/C=C/C#N)cc(C)c1Oc1nc(NC2CCN(Cc3cn(CC(=O)NC4CC4)nn3)CC2)nc2c1COC2	33

Test system: Human immunodeficiency virus 1
Assay: Antiviral activity against HIV1 IIIB harboring Y188L mutant infected in MT4 cells assessed as reduction in virus induced cytopathic effect incubated for 5 days by MTT method
Format: functional, organism-based
Conditions: Human immunodeficiency virus 1, IIIB, MT4, 120 h

SMILES	EC50 [nM]
Cc1cc(/C=C/C#N)cc(C)c1Oc1nc(NC2CCN(Cc3cn(CC(=O)NC4CCOCC4)nn3)CC2)nc2ccccc12	55
CNC(=O)Cn1cc(CN2CCC(Nc3nccc(Oc4c(C)cc(/C=C/C#N)cc4C)n3)CC2)nn1	551
Cc1cc(/C=C/C#N)cc(C)c1Oc1ccnc(NC2CCN(Cc3cn(CC(N)=O)nn3)CC2)n1	729
Cc1cc(/C=C/C#N)cc(C)c1Oc1nc(NC2CCN(Cc3cn(CC(N)=O)nn3)CC2)nc2ccsc12	97
Cc1cc(/C=C/C#N)cc(C)c1Oc1ccnc(NC2CCN(Cc3cn(CC(=O)NC4CCOCC4)nn3)CC2)n1	522
CCNC(=O)Cn1cc(CN2CCC(Nc3nc4c(c(Oc5c(C)cc(/C=C/C#N)cc5C)n3)COC4)CC2)nn1	175
Cc1cc(/C=C/C#N)cc(C)c1Oc1nc(NC2CCN(Cc3cn(CC(=O)NC4CC4)nn3)CC2)nc2c1COC2	114

Test system: Human immunodeficiency virus 1
Assay: Antiviral activity against HIV1 IIIB harboring E138K mutant infected in MT4 cells assessed as reduction in virus induced cytopathic effect incubated for 5 days by MTT method
Format: functional, organism-based
Conditions: Human immunodeficiency virus 1, IIIB, MT4, 120 h

SMILES	EC50 [nM]
Cc1cc(/C=C/C#N)cc(C)c1Oc1nc(NC2CCN(Cc3cn(CC(=O)NC4CCOCC4)nn3)CC2)nc2ccccc12	27
CNC(=O)Cn1cc(CN2CCC(Nc3nccc(Oc4c(C)cc(/C=C/C#N)cc4C)n3)CC2)nn1	10
Cc1cc(/C=C/C#N)cc(C)c1Oc1ccnc(NC2CCN(Cc3cn(CC(N)=O)nn3)CC2)n1	24
Cc1cc(/C=C/C#N)cc(C)c1Oc1nc(NC2CCN(Cc3cn(CC(N)=O)nn3)CC2)nc2ccsc12	21
Cc1cc(/C=C/C#N)cc(C)c1Oc1ccnc(NC2CCN(Cc3cn(CC(=O)NC4CCOCC4)nn3)CC2)n1	34
CCNC(=O)Cn1cc(CN2CCC(Nc3nc4c(c(Oc5c(C)cc(/C=C/C#N)cc5C)n3)COC4)CC2)nn1	22
Cc1cc(/C=C/C#N)cc(C)c1Oc1nc(NC2CCN(Cc3cn(CC(=O)NC4CC4)nn3)CC2)nc2c1COC2	15

Test system: Human immunodeficiency virus 1
Assay: Antiviral activity against HIV1 IIIB harboring F227L/V106A double mutant infected in MT4 cells assessed as reduction in virus induced cytopathic effect incubated for 5 days by MTT method
Format: functional, organism-based
Conditions: Human immunodeficiency virus 1, IIIB, MT4, 120 h

SMILES	EC50 [nM]
Cc1cc(/C=C/C#N)cc(C)c1Oc1nc(NC2CCN(Cc3cn(CC(=O)NC4CCOCC4)nn3)CC2)nc2ccccc12	645
CNC(=O)Cn1cc(CN2CCC(Nc3nccc(Oc4c(C)cc(/C=C/C#N)cc4C)n3)CC2)nn1	209
Cc1cc(/C=C/C#N)cc(C)c1Oc1ccnc(NC2CCN(Cc3cn(CC(N)=O)nn3)CC2)n1	188
Cc1cc(/C=C/C#N)cc(C)c1Oc1nc(NC2CCN(Cc3cn(CC(N)=O)nn3)CC2)nc2ccsc12	94
Cc1cc(/C=C/C#N)cc(C)c1Oc1ccnc(NC2CCN(Cc3cn(CC(=O)NC4CCOCC4)nn3)CC2)n1	232
CCNC(=O)Cn1cc(CN2CCC(Nc3nc4c(c(Oc5c(C)cc(/C=C/C#N)cc5C)n3)COC4)CC2)nn1	259
Cc1cc(/C=C/C#N)cc(C)c1Oc1nc(NC2CCN(Cc3cn(CC(=O)NC4CC4)nn3)CC2)nc2c1COC2	275

Test system: Human immunodeficiency virus 1
Assay: Antiviral activity against HIV1 IIIB harboring RES056 mutant infected in MT4 cells assessed as reduction in virus induced cytopathic effect incubated for 5 days by MTT method
Format: functional, organism-based
Conditions: Human immunodeficiency virus 1, IIIB, MT4, 120 h

SMILES	EC50 [nM]
Cc1cc(/C=C/C#N)cc(C)c1Oc1nc(NC2CCN(Cc3cn(CC(=O)NC4CCOCC4)nn3)CC2)nc2ccccc12	161
CNC(=O)Cn1cc(CN2CCC(Nc3nccc(Oc4c(C)cc(/C=C/C#N)cc4C)n3)CC2)nn1	262
Cc1cc(/C=C/C#N)cc(C)c1Oc1ccnc(NC2CCN(Cc3cn(CC(N)=O)nn3)CC2)n1	547
Cc1cc(/C=C/C#N)cc(C)c1Oc1nc(NC2CCN(Cc3cn(CC(N)=O)nn3)CC2)nc2ccsc12	240
Cc1cc(/C=C/C#N)cc(C)c1Oc1ccnc(NC2CCN(Cc3cn(CC(=O)NC4CCOCC4)nn3)CC2)n1	190
CCNC(=O)Cn1cc(CN2CCC(Nc3nc4c(c(Oc5c(C)cc(/C=C/C#N)cc5C)n3)COC4)CC2)nn1	512
Cc1cc(/C=C/C#N)cc(C)c1Oc1nc(NC2CCN(Cc3cn(CC(=O)NC4CC4)nn3)CC2)nc2c1COC2	304
